Paper PMC10463376, “Design, synthesis, in vitro anticancer, molecular docking and SAR studies of new series of pyrrolo[2,3-d]pyrimidine derivatives” (BMC Chemistry, 2023)
Values after ≈ are worked out from the molar mass of the structure shown.

Tests used:
MCF7 breast cancer cells = test: MTT assay, MCF7; conditions: for cytotoxicity at 100 µg/mL / IC50: Homo sapiens, MCF7, 72 h; for cytotoxicity at 100 µg/mL / cytotoxicity: read-out: MTT cell proliferation mortality assay (%) MCF7; for IC50: read-out: IC50 MCF7; for cytotoxicity: at 100 μg/ml, 72 h
Description: (§1) All of the following steps were done in a sterile Laminar flow class II biosafety cabinet (Baker, SG406INT, Sanford, ME, USA). DMEM was used as a suspension medium for breast cancer (MCF7), colorectal cancer (HCT116), prostate cancer (PC3), liver cancer (HePG2), pancreatic cancer (PACA2) and lung cancer (A549), while normal cell line (BJ1) was suspended in DMEM-F12 medium. The selected cell lines were purchased from American Type Culture Collection (ATCC). The media were supplemented with a 1% antimycotic-antibiotic mixture (10,000 µg/ml streptomycin sulfate, 25 µg/ml Amphotericin B, and 10,000 U/ml Potassium Penicillin) and 1% L-glutamine. 10 × 10^4cells/well were seeded in 96 well microtiter plates and incubated for 24 h at 37 ℃ under 5% carbon dioxide using a water-jacketed Carbon dioxide incubator (Sheldon, SCO5A, OR, USA). […] After the incubation time of 72 h, the medium was removed. Afterward, 40 µl MTT salt ([…]) was added to each well and kept for 4 h under the same conditions of 37 °C and 5% carbon dioxide. Finally, 200 μl of 10% Sodium dodecyl sulfate (SDS) in deionized water was added to each well and incubated overnight at 37 °C. The step of SDS addition was done to stop the reaction and dissolve the formed formazan crystals. The absorbance was then measured at a wavelength of 595 nm and the reference wavelength was set at 620 nm using a microplate multi-well reader (Bio-Rad Laboratories Inc., model 3356, California, USA). […] A statistical significance analysis was determined between the samples and the negative control using an independent t-test by SPSS 11 program. Dimethyl sulfoxide (DMSO) was the vehicle that dissolved our synthesized compounds and its concentration in the cells was less than 0.2%. IC50 values were calculated using the GraphPad Prism 6 program. The degree of selectivity of the synthetic compounds was expressed as SI = IC50 of a pure compound in a normal cell line/IC50 of the same pure compound in the cancer cell line, where IC50 is the concentration of the compound required to kill 50% of the cells.

[1] = MTT assay, normal cell line BJ1; assay type: cell-based; conditions: human, at 100 μg/ml, read-out: MTT cell proliferation mortality assay (%) BJ1
Description: as §1

[2] = tested on: PC3 prostate cancer cells; test: MTT assay, PC3; conditions: Homo sapiens, 72 h; for cytotoxicity at 100 µg/mL: read-out: MTT cell proliferation mortality assay (%) PC3, at 100 μg/ml, 72 h; for IC50: read-out: IC50 PC3
Description: as §1

[3] = tested on: PACA2 pancreatic cancer cells; test: MTT assay, PACA2; conditions: Homo sapiens, PaCa-2, 72 h; for cytotoxicity at 100 µg/mL: read-out: MTT cell proliferation mortality assay (%) PACA2; for IC50: read-out: IC50 PACA2
Description: as §1

[4] = tested on: HCT116 colorectal cancer cells; test: MTT assay, HCT116; conditions: for IC50 / cytotoxicity at 100 µg/mL: Homo sapiens, HCT-116, 72 h; for IC50: read-out: IC50 HCT116; for cytotoxicity at 100 µg/mL: read-out: MTT cell proliferation mortality assay (%) HCT116, at 100 μg/ml, 72 h; for cytotoxicity: read-out: MTT cell proliferation mortality assay (%) HCT116, at 100 μg/ml, 72 h
Description: as §1

HePG2 liver cancer cells = test: MTT assay, HePG2; conditions: Homo sapiens, HepG2, 72 h; for IC50: read-out: IC50 HePG2; for cytotoxicity at 100 µg/mL: read-out: MTT cell proliferation mortality assay (%) HePG2
Description: as §1

A549 lung cancer cells = test: MTT assay, A549; conditions: for cytotoxicity at 100 µg/mL: read-out: MTT cell proliferation mortality assay (%) A549, at 100 μg/ml, 72 h
Description: as §1

SMILES	cytotoxicity at 100 µg/mL (MCF7 breast cancer cells)	cytotoxicity at 72 h, 100 μg/ml [1]	cytotoxicity at 100 µg/mL [2]	cytotoxicity at 100 µg/mL [3]	IC50 [4]	cytotoxicity at 100 µg/mL [4]	cytotoxicity [4]	IC50 (HePG2 liver cancer cells)	cytotoxicity at 100 µg/mL (HePG2 liver cancer cells)	cytotoxicity at 100 µg/mL (A549 lung cancer cells; Homo sapiens, A549, 72 h)	IC50 [3]	IC50 (MCF7 breast cancer cells)	IC50 (A549 lung cancer cells; Homo sapiens, A549, 72 h, read-out: IC50 A549)	cytotoxicity (A549 lung cancer cells; read-out: MTT cell proliferation mortality assay (%) A549, at 100 μg/ml, 72 h)	IC50 [2]	cytotoxicity (MCF7 breast cancer cells)
O=c1[nH]cnc2c1c(-c1ccc(Br)cc1)cn2-c1ccc(Cl)cc1Cl [Compound 3a, 5-(4-bromophenyl)-7-(2,4-dichlorophenyl)-3,7-dihydro-4H-pyrrolo[2,3-d]pyrimidin-4-one]	63.5 ± 2.6%	95.3 ± 1.8%	36.5 ± 0.9%	71.3 ± 0.8%	44.5 ± 1.3 mg/L (≈ 102 µM)	80 to 90%	84.3 ± 1.1%	19.2 ± 0.6 mg/L (≈ 44.1 µM)	100%	3.4 ± 0.2%						
COc1ccc(-c2cn(-c3ccc(Cl)cc3Cl)c3nc[nH]c(=O)c23)cc1OC [Compound 3b, 7-(2,4-dichlorophenyl)-5-(3,4-dimethoxyphenyl)-3,7-dihydro-4H-pyrrolo[2,3-d]pyrimidin-4-one]	11.5 ± 0.8%	3.5 ± 0.9%	15.6 ± 1.3%	76.3 ± 1.8%		14.6 ± 0.1%			10.4 ± 1.7%	8.5 ± 0.6%	69.7 ± 1.3 mg/L (≈ 167 µM)					
Clc1ccc(-n2c(Cl)c(-c3ccc(Br)cc3)c3c(Cl)ncnc32)c(Cl)c1 [Compound 4a, 5-(4-bromophenyl)-4,6-dichloro-7-(2,4-dichlorophenyl)-7H-pyrrolo[2,3-d]pyrimidine]	100%	74.6 ± 0.6%	53 ± 0.7%	100%		74.2 ± 2.5%			43.5 ± 2.2%	80 to 90%	24.1 ± 1 mg/L (≈ 49.4 µM)	32.4 ± 0.8 mg/L (≈ 66.4 µM)	68.9 ± 0.5 mg/L (≈ 141 µM)	79.4 ± 1.6%		
Clc1ccc(-n2cc(-c3ccc(Br)cc3)c3c(Cl)ncnc32)c(Cl)c1 [Compound 5, 5-(4-bromophenyl)-4-chloro-7-(2,4-dichlorophenyl)-7H-pyrrolo[2,3-d]pyrimidine]	27.9 ± 1.2%	16.3 ± 2%	42.3 ± 1.3%	29.3 ± 0.8%		60.4 ± 0.9%			34.5 ± 2.9%	25.1 ± 0.7%						
Cc1nc2c(c(-c3ccc(Br)cc3)cn2-c2ccc(Cl)cc2Cl)c(=O)[nH]1 [Compound 6, 5-(4-bromophenyl)-7-(2,4-dichlorophenyl)-2-methyl-3,7-dihydro-4H-pyrrolo[2,3-d]pyrimidin-4-one]	100%	84.9 ± 0.7%	100%	100%	31.2 ± 0.9 mg/L (≈ 69.5 µM)	100%					40 ± 1 mg/L (≈ 89.1 µM)	15.2 ± 0.9 mg/L (≈ 33.8 µM)			31.1 ± 0.9 mg/L (≈ 69.2 µM)	
Clc1ccc(-n2c(Cl)c(-c3ccc(Br)cc3)c3c(Cl)nc(C(Cl)(Cl)Cl)nc32)c(Cl)c1 [Compound 7, 5-(4-bromophenyl)-4,6-dichloro-7-(2,4-dichlorophenyl)-2-(trichloromethyl)-7H-pyrrolo[2,3-d]pyrimidine]	100%	100%	54.2 ± 1.6%	100%		100%				14.2 ± 0.8%		16.2 ± 1.6 mg/L (≈ 26.8 µM)				
COc1nc(C(Cl)(Cl)Cl)nc2c1c(-c1ccc(Br)cc1)c(Cl)n2-c1ccc(Cl)cc1Cl [Compound 8, 5-(4-bromophenyl)-6-chloro-7-(2,4-dichlorophenyl)-4-methoxy-2-(trichloromethyl)-7H-pyrrolo[2,3-d]pyrimidine]	84.3 ± 2.5%	15.6 ± 2.8%	13.5 ± 1.5%	100%	68.1 ± 1 mg/L (≈ 113 µM)	80 to 90%	80 ± 1%	17.8 ± 1.3 mg/L (≈ 29.6 µM)	100%	19.3 ± 1.2%	23.5 ± 0.6 mg/L (≈ 39.1 µM)	48 ± 1.5 mg/L (≈ 79.9 µM)				80 to 95%
COc1ncnc2c1c(-c1ccc(Br)cc1)c(Cl)n2-c1ccc(Cl)cc1Cl [Compound 9a, 5-(4-bromophenyl)-6-chloro-7-(2,4-dichlorophenyl)-4-methoxy-7H-pyrrolo[2,3-d]pyrimidine]	75.2 ± 3.6%	37.8 ± 0.6%	53.8 ± 0.3%	1.3 ± 0.2%		52.1 ± 0.8%				58.6 ± 1.3%						
COc1ccc(-c2c(Cl)n(-c3ccc(Cl)cc3Cl)c3ncnc(OC)c23)cc1OC [Compound 9b, 6-chloro-7-(2,4-dichlorophenyl)-5-(3,4-dimethoxyphenyl)-4-methoxy-7H-pyrrolo[2,3-d]pyrimidine]	100%			2.5 ± 0.3%		45.6 ± 3.2%			63.8 ± 0.6%							
Clc1ccc(-n2c(Cl)c(-c3ccc(Br)cc3)c3c(N4CCCC4)nc(C(Cl)(Cl)Cl)nc32)c(Cl)c1 [Compound 10, 5-(4-bromophenyl)-6-chloro-7-(2,4-dichlorophenyl)-4-(pyrrolidin-1-yl)-2-(trichloromethyl)-7H-pyrrolo[2,3-d]pyrimidine]	100%	100%	100%	100%	26.9 ± 0.6 mg/L (≈ 42 µM)	100%				10.2 ± 0.5%		61.1 ± 1.4 mg/L (≈ 95.5 µM)			11.6 ± 0.8 mg/L (≈ 18.1 µM)	
Clc1ccc(-n2c(Cl)c(-c3ccc(Br)cc3)c3c(N4CCCC4)ncnc32)c(Cl)c1 [Compound 11a, 5-(4-bromophenyl)-6-chloro-7-(2,4-dichlorophenyl)-4-(pyrrolidin-1-yl)-7H-pyrrolo[2,3-d]pyrimidine]	65.2 ± 1%	47.3 ± 1.3%	12.5 ± 1.4%	84.3 ± 1.7%		44.2 ± 0.8%			7.2 ± 1.3%	11.8 ± 0.6%	55.4 ± 1.4 mg/L (≈ 106 µM)					
COc1ccc(-c2c(Cl)n(-c3ccc(Cl)cc3Cl)c3ncnc(N4CCCC4)c23)cc1OC [Compound 11b, 6-chloro-7-(2,4-dichlorophenyl)-5-(3,4-dimethoxyphenyl)-4-(pyrrolidin-1-yl)-7H-pyrrolo[2,3-d]pyrimidine]	80.4 ± 1.8%	56.9 ± 0.1%	94.6 ± 1.3%	25.6 ± 0.9%		33.5 ± 0.4%			63.1 ± 0.5%	11.6 ± 0.9%		48.4 ± 0.8 mg/L (≈ 96.1 µM)			27.7 ± 0.1 mg/L (≈ 55 µM)	80 to 95%
S=c1[nH]cnc2c1c(-c1ccc(Br)cc1)c(Cl)n2-c1ccc(Cl)cc1Cl [Compound 12, 5-(4-bromophenyl)-6-chloro-7-(2,4-dichlorophenyl)-3,7-dihydro-4H-pyrrolo[2,3-d]pyrimidine-4-thione]	100%	100%	3.1 ± 0.2%	81.5 ± 1.2%		64.3 ± 1.1%			26.3 ± 3.4%	71.3 ± 1.6%	59.7 ± 0.7 mg/L (≈ 123 µM)	11.9 ± 0.9 mg/L (≈ 24.5 µM)				
CSc1ncnc2c1c(-c1ccc(Br)cc1)c(Cl)n2-c1ccc(Cl)cc1Cl [Compound 13, 5-(4-bromophenyl)-6-chloro-7-(2,4-dichlorophenyl)-4-(methylthio)-7H-pyrrolo[2,3-d]pyrimidine]	3.5 ± 0.6%	25.3 ± 0.4%	32.2 ± 1.7%	58.8 ± 1.2%		60.2 ± 1%			12.4 ± 1.9%	42.6 ± 1.2%						
